Measured values reported in article PMC8156151 (The European Respiratory Journal, 2021).
Like-named read-outs stand apart in the source and are kept apart here.

What was measured:
Periostin = test: Plasma biomarker periostin; type: in vivo, human; conditions: for Periostin raw data, Mean (SD) / Periostin least square means % baseline±SEM: IPF patients
Method: (§1) All patients, investigators, sites and study sponsor personnel were blinded to the study group assignments throughout the study. Patients underwent study-specific assessments on days 2, 3, 7, 14 and 15, and a post-study assessment was carried out 26–30 days after the last day of the study period. Assessments included vital signs (supine blood pressure, pulse, oxygen saturation, oral temperature and respiratory rate), spirometry, 12-lead ECG, physical examination, laboratory safety screen (haematology, biochemistry, urinalysis and urinary drugs of abuse screen) and blood sampling for PK measurements. All adverse events and concomitant medications were recorded from the time of the screening visit until the post-study follow-up visit. BAL was performed at day −1 (24 h before the first dose) and at day 14 (2 h after the last dose). The BAL procedure was performed as per international guidelines. Briefly, 240 mL of 0.9% saline at room temperature was instilled in 40 mL aliquots into the right middle lobe and aspirated by suction after each aliquot.
(§2) BAL cells were separated from fluid by centrifugation, and cells were collected, stained with antibodies (supplementary material) and then fixed before analysis using a LSR Fortessa flow cytometer (Becton Dickinson, Franklin Lakes, NJ, USA). Data were analysed using FlowJo software (Tree Star, Ashland, OR, USA). Macrophages were identified as having high side scatter properties and human leukocyte antigen-DR positivity. Gal-3 expression (mean fluorescence intensity) was determined from the macrophage gate (supplementary figures S1 and S2). […] Samples were analysed by magnetic Luminex assay (R&D Systems, Minneapolis, MN, USA) or ELISA.
(§3) For part 2 of the study, placebos were combined from the three dose-specific cohorts into a pooled control group (n=9). For alveolar macrophage Gal-3 expression and the plasma biomarkers, ANCOVA was performed for percentage of baseline ((day 14/day 1)×100). The ANCOVA model included effects for treatment group and baseline (day 1) value. […] An additional analysis including dose as a continuous covariate was also performed. The Pearson correlation coefficient (r) and associated p-value were calculated for percentage of baseline and day 14 values between plasma biomarkers and alveolar macrophage Gal-3 expression. […] The analysis is exploratory and there was no pre-planned adjustment for multiple testing; the study was not powered for this. Alveolar macrophage Gal-3 expression was considered the primary exploratory analysis with the pre-selected biomarkers secondary. A Bonferroni correction for multiple testing of the secondary end-points comparing the 10 mg group with placebo gives a critical value of 0.0063. Data are presented as the difference in least square means with 95% confidence interval and p-value unless otherwise stated. All analyses were performed using SAS version 9.4 (SAS Institute, Cary, NC, USA). […]

PAI-1 = test: Plasma biomarker PAI-1; type: in vivo, human; conditions: for PAI-1 raw data, Mean (SD) / PAI-1 least square means % baseline±SEM: IPF patients
Method: as §1, §2, §3

CCL2 (MCP-1) = test: Plasma biomarker CCL2; type: in vivo, human; conditions: for CCL2 (MCP-1) raw data, Mean (SD) / CCL2 (MCP-1) least square means % baseline±SEM: IPF patients
Method: as §1, §2, §3

TIMP-1 = test: Plasma biomarker TIMP-1; type: in vivo, human; conditions: for TIMP1 raw data, Mean (SD) / TIMP-1 least square means % baseline±SEM: IPF patients
Method: as §1, §2, §3

CCL5 (RANTES) = test: Plasma biomarker CCL5; type: in vivo, human; conditions: for CCL5 (RANTES) raw data, Mean (SD) / CCL5 (RANTES) least square means % baseline±SEM: IPF patients
Method: as §1, §2, §3

Gal-3 = Gal-3 (Homo sapiens, UniProt P17931); conditions: for Galectin-3 (BAL) raw data, Mean (SD): Day 14
Method: as §1, §2
For part 2 of the study, placebos were combined from the three dose-specific cohorts into a pooled control group (n=9). For alveolar macrophage Gal-3 expression and the plasma biomarkers, ANCOVA was performed for percentage of baseline ((day 14/day 1)×100). The ANCOVA model included effects for treatment group and baseline (day 1) value. […] An additional analysis including dose as a continuous covariate was also performed. The Pearson correlation coefficient (r) and associated p-value were calculated for percentage of baseline and day 14 values between plasma biomarkers and alveolar macrophage Gal-3 expression. […] The analysis is exploratory and there was no pre-planned adjustment for multiple testing; the study was not powered for this. Alveolar macrophage Gal-3 expression was considered the primary exploratory analysis with the pre-selected biomarkers secondary. A Bonferroni correction for multiple testing of the secondary end-points comparing the 10 mg group with placebo gives a critical value of 0.0063. Data are presented as the difference in least square means with 95% confidence interval and p-value unless otherwise stated. All analyses were performed using SAS version 9.4 (SAS Institute, Cary, NC, USA).
BAL cells were separated from fluid by centrifugation and BAL cells were collected, stained with antibodies then fixed before analysis using a LSRFortessa™ flow cytometer (Becton Dickinson, NJ, USA). Data were analysed using FlowJo software (Becton Dickinson, NJ, USA). After exclusion of doublets and debris a sequential gating strategy was employed to identify cell populations based on surface marker expression. The antibodies used were Gal-3-FITC, CD19-PE, HLA-DR PEcy7, CD14-APC, CD16-pacific-blue, CD11b perCPcy5.5, […]
Biolegend except Gal-3-FITC which was from Cedarlane. Macrophages were identified as having high side scatter properties and HLA-DR positivity. Gal-3 expression (mean fluorescence intensity, MFI) was determined from the macrophage gate. Macrophage subsets were classed as M1, M2a and M2c based on the relative expression of CD206 and CD163 as […]
ve gate the relative % of neutrophils (CD19-/CD16+), B cells (CD19+), natural killer (NK) cells (CD56+), NK T-cells (NKT) cells (CD56+/CD3+), CD4 T cells (CD3+/CD4+) and CD8 T cells

Sequence of Gal-3 (P17931 whole entry): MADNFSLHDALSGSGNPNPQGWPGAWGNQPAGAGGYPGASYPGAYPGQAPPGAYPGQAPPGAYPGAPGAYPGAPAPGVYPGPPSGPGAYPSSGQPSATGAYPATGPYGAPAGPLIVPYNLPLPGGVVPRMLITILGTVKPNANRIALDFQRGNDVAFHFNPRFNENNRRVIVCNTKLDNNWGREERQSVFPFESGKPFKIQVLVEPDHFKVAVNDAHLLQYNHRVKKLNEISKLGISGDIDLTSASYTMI

- Gal-3 expression on BAL macrophages, percentage of baseline at day 14, difference compared with placebo (Gal-3; 3 mg dose group): −38.66%
- Gal-3 expression on BAL macrophages, percentage of baseline at day 14, difference compared with placebo (Gal-3; 10 mg dose group): −44.63%
- Gal-3 (BAL) Bayesian probability of effect (Gal-3; BAL macrophages, 10 mg vs placebo): 99.14
- Gal-3 (BAL) difference in least square means % baseline (95% CI) (Gal-3; BAL macrophages, 10 mg vs placebo, ANCOVA): −44.6 (−80.4– −8.8) % baseline
- Galectin-3 (BAL) raw data, Mean (SD) (Gal-3; IPF patients, BAL macrophages, 0.3 mg): 7794.8 (2990.48) pg/ml
- Galectin-3 (BAL) raw data, Mean (SD) (Gal-3; IPF patients, BAL macrophages, 3 mg): 8058.6 (3001.05) pg/ml
- Galectin-3 (BAL) raw data, Mean (SD) (Gal-3; IPF patients, BAL macrophages, 10 mg): 5237 (2033.86) pg/ml
- Gal-3 (BAL) least square means % baseline±SEM (Gal-3; IPF patients, BAL macrophages, day 14, 0.3 mg once daily): 67.9±12.1 % baseline
- Gal-3 (BAL) least square means % baseline±SEM (Gal-3; IPF patients, BAL macrophages, day 14, 3 mg once daily): 43.0±11.7 % baseline
- Gal-3 (BAL) least square means % baseline±SEM (Gal-3; IPF patients, BAL macrophages, day 14, 10 mg once daily): 37.1±13.5 % baseline
- Galectin-3 (BAL), analysis including dose as a continuous covariate: Estimate (Gal-3; IPF patients, BAL macrophages, percentage of baseline): -4.19
- correlation between TD139 in AMs and percentage of baseline in surface macrophage Gal-3 (r) (Gal-3; IPF patients, day 14): −0.63 (95% CI −0.86– −0.18)
- Emax (AM surface Gal-3 percentage of baseline) (Gal-3; fitted maximum effect model vs macrophage TD139 concentration, (95% CI)): 4.5 (−44.0–35.9)
SMILES: OC[C@H]1O[C@@H](S[C@@H]2O[C@H](CO)[C@H](O)[C@H](n3cc(-c4cccc(F)c4)nn3)[C@H]2O)[C@H](O)[C@@H](n2cc(-c3cccc(F)c3)nn2)[C@H]1O [TD139]
- Periostin difference in least square means % baseline (95% CI) (Periostin; 10 mg vs placebo, ANCOVA): −5.4 (−18.8–8.0) % baseline
- Periostin raw data, Mean (SD) (Periostin; Day 14, 0.3 mg): 125952.3 (17487.63) pg/ml
- Periostin raw data, Mean (SD) (Periostin; Day 14, 3 mg): 142019.1 (30390.08) pg/ml
- Periostin raw data, Mean (SD) (Periostin; Day 14, 10 mg): 108663.7 (24686.82) pg/ml
- Periostin least square means % baseline±SEM (Periostin; day 14, 0.3 mg once daily): 114.0±5.3 % baseline
- Periostin least square means % baseline±SEM (Periostin; day 14, 3 mg once daily): 99.3±5.2 % baseline
- Periostin least square means % baseline±SEM (Periostin; day 14, 10 mg once daily): 93.1±5.0 % baseline
- PAI-1 difference in least square means % baseline (95% CI) (PAI-1; 10 mg vs placebo, ANCOVA): −151.8 (−265.3– −38.2) % baseline
- PAI-1 raw data, Mean (SD) (PAI-1; Day 14, 0.3 mg): 45736.7 (29863.26) pg/ml
- PAI-1 raw data, Mean (SD) (PAI-1; Day 14, 3 mg): 45744.4 (44222.1) pg/ml
- PAI-1 raw data, Mean (SD) (PAI-1; Day 14, 10 mg): 23122.2 (12659.84) pg/ml
- PAI-1 least square means % baseline±SEM (PAI-1; day 14, 0.3 mg once daily): 84.6±48.8 % baseline
- PAI-1 least square means % baseline±SEM (PAI-1; day 14, 3 mg once daily): 92.4±44.5 % baseline
- PAI-1 least square means % baseline±SEM (PAI-1; day 14, 10 mg once daily): 45.8±43.7 % baseline
- CCL2 (MCP-1) difference in least square means % baseline (95% CI) (CCL2 (MCP-1); 10 mg vs placebo, ANCOVA): −71.7 (−187.1–43.7) % baseline
- CCL2 (MCP-1) raw data, Mean (SD) (CCL2 (MCP-1); Day 14, 0.3 mg): 133.8 (15.06) pg/ml
- CCL2 (MCP-1) raw data, Mean (SD) (CCL2 (MCP-1); Day 14, 3 mg): 137.6 (63.21) pg/ml
- CCL2 (MCP-1) raw data, Mean (SD) (CCL2 (MCP-1); Day 14, 10 mg): 270.3 (348.45) pg/ml
- CCL2 (MCP-1) least square means % baseline±SEM (CCL2 (MCP-1); day 14, 0.3 mg once daily): 126.7±39.3 % baseline
- CCL2 (MCP-1) least square means % baseline±SEM (CCL2 (MCP-1); day 14, 3 mg once daily): 93.7±38.7 % baseline
- CCL2 (MCP-1) least square means % baseline±SEM (CCL2 (MCP-1); day 14, 10 mg once daily): 89.4±43.5 % baseline
- TIMP-1 difference in least square means % baseline (95% CI) (TIMP-1; 10 mg vs placebo, ANCOVA): 3.8 (−10.6–18.2) % baseline
- TIMP1 raw data, Mean (SD) (TIMP-1; Day 14, 0.3 mg): 38084.3 (4735.81) pg/ml
- TIMP1 raw data, Mean (SD) (TIMP-1; Day 14, 3 mg): 49880.6 (1032.27) pg/ml
- TIMP1 raw data, Mean (SD) (TIMP-1; Day 14, 10 mg): 45458.7 (11908.04) pg/ml
- TIMP-1 least square means % baseline±SEM (TIMP-1; day 14, 0.3 mg once daily): 88.6±5.8 % baseline
- TIMP-1 least square means % baseline±SEM (TIMP-1; day 14, 3 mg once daily): 107.0±6.0 % baseline
- TIMP-1 least square means % baseline±SEM (TIMP-1; day 14, 10 mg once daily): 106.0±5.5 % baseline
- CCL5 (RANTES) difference in least square means % baseline (95% CI) (CCL5 (RANTES); 10 mg vs placebo, ANCOVA): −54.1 (−147–38.8) % baseline
- CCL5 (RANTES) raw data, Mean (SD) (CCL5 (RANTES); Day 14, 0.3 mg): 47658.1 (27017.8) pg/ml
- CCL5 (RANTES) raw data, Mean (SD) (CCL5 (RANTES); Day 14, 3 mg): 75675.6 (92820.57) pg/ml
- CCL5 (RANTES) raw data, Mean (SD) (CCL5 (RANTES); Day 14, 10 mg): 33994.2 (29435.9) pg/ml
- CCL5 (RANTES) least square means % baseline±SEM (CCL5 (RANTES); day 14, 0.3 mg once daily): 62.3±37.1 % baseline
- CCL5 (RANTES) least square means % baseline±SEM (CCL5 (RANTES); day 14, 3 mg once daily): 115.1±35.1 % baseline
- CCL5 (RANTES) least square means % baseline±SEM (CCL5 (RANTES); day 14, 10 mg once daily): 75.8±35.8 % baseline
